Values quoted from earlier work, collected in patent US20060078583A1, “Device for delivering an anti-microbial composition” (priority 2004, published 2006).

Tests used:
[1] = tested on: rhinovirus; details: on skin
[2] = tested on: rhinoviral infections (colds); details: subjects who used iodine products

II [iodine]
residual anti-rhinoviral activity [1]: provides residual anti-rhinoviral activity on skin | number of colds versus placebo users [2]: significantly fewer colds than placebo users
